Test results: patent publication US9486440B2, “Uses of indole-ketones or indolidones as neuro-protective drugs” (UNIVERSITY OF MACAU, priority 2011, dated 2016)
“Also recorded” adds a separate entry of the source.

Legend:
CGNs [1] = settings: VEGF 10-300 ng/ml; cited from earlier work
CGNs [2] = test: MPP+-induced neurotoxicity in CGNs, MTT and LDH assays; type: cell-based, rat
Protocol: All animal experiments were conducted according to the ethical guidelines of ICMS, Macau University and the Animal Care Facility, The Hong Kong Polytechnic University. Rat CGNs were prepared from 8-day-old Sprague-Dawley rats (The Animal Care Facility, The Hong Kong Polytechnic University) as described by Li et al., 2005. Briefly, neurons were seeded at a density of 2.7×10^5 cells/ml in basal modified Eagle's medium (Invitrogen) containing 10% fetal bovine serum, 25 mM KCl, 2 mM glutamine, and penicillin (100 units/ml)/streptomycin (100 μg/ml). Cytosine arabinoside (10 μM) was added to the culture medium 24 hour after plating to limit the growth of non-neuronal cells. With the use of this protocol, more than 95% of the cultured cells were granule neurons.
(§1) The percentage of surviving neurons in the presence of SU4312 and/or MPP^+ was estimated by determining the activity of mitochondrial dehydrogenases with 3(4,5-dimethylthiazol-2-yl)-2.5-diphenyltetrazolium bromide (MTT) assay (Li et al., 2007). The assay was performed according to the specifications of the manufacturer (MTT kit I; Roche Applied Science). Briefly, the neurons were cultured in 96-well plates, 10 μl of 5 mg/ml MTT labeling reagent was added to each well containing cells in 100 μl of medium, and the plates were incubated for 4 hours in a humidified incubator at 37° C. After the incubation, 100 μl of the solvating solution (0.01 N HCl in 10% SDS solution) was added to each well for 16-20 hours. Absorbance of the samples was measured at a wavelength of 570 nm with 655 nm as a reference wavelength. Unless otherwise indicated, the extent of MTT conversion in cells exposed to MPP^+ is expressed as a percentage of the control.
Cytotoxicity was determined by measuring the release of lactate dehydrogenase (LDH). Briefly, cells were precipitated by centrifugation at 500 g for 5 min at room temperature, 50 μl of the supernatants was transferred into new wells, and LDH was determined using the in vitro toxicology assay kit (Roche). The absorbance of the samples was measured at a wavelength of 490 nm with 655 nm as a reference wavelength.
Rat CGNs were prepared from 8-day-old Sprague-Dawley rats (The Animal Care Facility, The Hong Kong Polytechnic University) as described by Li et al., 2005. Briefly, neurons were seeded at a density of 2.7×10^5 cells/ml in basal modified Eagle's medium (Invitrogen) containing 10% fetal bovine serum, 25 mM KCl, 2 mM glutamine, and penicillin (100 units/ml)/streptomycin (100 μg/ml). Cytosine arabinoside (10 μM) was added to the culture medium 24 hours after plating to limit the growth of non-neuronal cells. With the use of this protocol, more than 95% of the cultured cells were granule neurons.
as §1, with “The” for “The percentage of surviving neurons in the presence of SU4312 and/or MPP^+ was estimated by determining the activity of mitochondrial dehydrogenases with 3(4,5-dimethylthiazol-2-yl)-2.5-diphenyltetrazolium bromide (MTT) assay (Li et al., 2007). The”, “incubated at 37° C.” for “incubated”, “incubator.” for “incubator at 37° C.”, “The absorbance” for “Absorbance”

SH-SY5Y cells [3] = test: MPP+-induced neurotoxicity in SH-SY5Y cells, MTT assay; type: cell-based, human; settings: for MPP+-induced neuronal death in SH-SY5Y cells (MTT): pre-treatment 2 hours, then 1 mM MPP+ for 24 hours
Protocol: The human neuroblastoma SH-SY5Y cells were obtained from ATCC. The cells were maintained in supplemented Dulbecco's modified eagle medium (DMEM), 10% fetal bovine serum, 100 U/ml penicillin, and 100 μg/ml streptomycin in a 37° C., 5% CO2 incubator. PC12 pheochromocytoma cells were also obtained from ATCC. The cells were cultured in medium that consisted of DMEM, 10% heat-inactivated horse serum, 5% fetal bovine serum, 100 U/ml penicillin, and 100 μg/ml streptomycin in a 37° C., 5% CO2 incubator. All experiments were carried out 48 hours after the cells were seeded. […] The assay was performed according to the specifications of the manufacturer (MTT kit I; Roche Applied Science). […] After the incubation, 100 μl of the solvating solution (0.01 N HCl in 10% SDS solution) was added to each well for 16-20 hours. Absorbance of the samples was measured at a wavelength of 570 nm with 655 nm as a reference wavelength. Unless otherwise indicated, the extent of MTT conversion in cells exposed to MPP^+ is expressed as a percentage of the control.

intracellular NO [4] = test: Intracellular NO in CGNs after MPP+ (DAF-FM diacetate); type: cell-based, rat; settings: pre-treatment 2 hours, 35 μM MPP+, 24 hours; SU4312 3-30 μM, 7-NI 3-10 μM
Protocol: (§2) Intracellular NO was monitored with 4-Amino-5-methylamino-2′,7′-difluorofluorescein (DAF-FM) diacetate, a pH-insensitive fluorescent dye that emits increased fluorescence after reaction with an active intermediate of NO formed during the spontaneous oxidation of NO to NO2 (Sheng et al., 2005). DAF-FM solution was added to the culture medium (final concentration: 5 μM). After 30 min in a CO2 incubator, cultures were washed twice with PBS and incubated for an additional 30 min to allow complete de-esterification of the intracellular diacetate for stronger fluorescence. The DAF-FM fluorescence in CGNs was quantified by a multi-detection microplate reader using excitation and emission wavelengths of 495 nm and 515 nm, respectively. The measured fluorescence values were expressed as a percentage of the fluorescence in the control cells.
as §2, with “(4-amino-5-methylamino-2′,7′-difluorofluorescein) DAF-FM” for “4-Amino-5-methylamino-2′,7′-difluorofluorescein (DAF-FM)”, “After incubation for” for “After”, “another” for “an additional”, “strong” for “stronger”

nNOS = nNOS (Homo sapiens, UniProt P29475); settings: cited from earlier work
iNOS [5] = biological target: T1, iNOS (Homo sapiens, UniProt P35228); settings: cited from earlier work
rat cerebellum nNOS = biological target: T2, rat cerebellum nNOS (Rattus norvegicus, UniProt P29476); test: In vitro nNOS activity assay, rat cerebellum nNOS; type: biochemical
T2 construct: purchased Calbiochem
Protocol: Rat cerebellum nNOS was from Calbiochem. NOS activity was determined by monitoring the conversion of L-[3H]arginine to [3H]citrulline following the instructions provided by the kit (Calbiochem). The reaction mixture contained a final volume of 40 μl with 25 mM Tris-Cl at pH 7.4, 3 μM tetrahydrobiopterin, 1 μM FAD, 1 μM FMN, 1 mM NADPH, 0.6 mM CaCl2, 0.1 μM calmodulin, 2.5 μg of pure NOS enzyme, 5 μl L-[3H]arginine (Perkin Elmer, Waltham, Mass., USA), and different concentrations of the tested reagents. The reaction mixture was incubated at 22° C. for 45 min. The reaction was quenched by adding 400 μl of stopping buffer (50 mM HEPES, pH 5.5, and 5 mM EDTA). Unreacted L-[3H]arginine was then trapped by 100 μl of equilibrated resin in a spin cup followed by centrifugation at 13,200 rpm for 30 s.

CGNs [6] = test: Low potassium-induced cell death in CGNs, MTT assay; type: cell-based; settings: 5 mM KCl BME medium, 24 hours; sunitinib 0.1-2 μM
Protocol: (§3) Cell viability was measured by MTT assay at 24 hours after low potassium challenge. […] After 24 hours of low potassium challenge, CGNs were assayed with an FDA/PI double staining. […] After 24 hours of low potassium challenge, CGNs were assayed with Hoechst staining. The number of apoptotic nuclei with condensed chromatin were counted from representative Hoechst staining photomicrographs and represented as a percentage of the total number of nuclei counted. […] Intracellular NO level was measured using DAF-FM diacetate as a probe at 4 hour after low potassium challenge. Data, expressed as percentage of control (CGNs were cultured in high potassium medium), were the mean±SEM of three separate experiments; *p<0.05 and **p<0.01 versus low potassium group in (A) and (D) or versus control in (C); ^##p<0.01 versus low potassium group in (C) (Turkey's test).
It was previously reported that low potassium could induce typical apoptosis in cerebellar granule neurons (CGNs) (Fu et al., 2008). […] Cell viability was measured with an MTT assay 24 hours after the low potassium treatment.

CGNs [7] = test: FDA/PI double staining of CGNs after low potassium; type: cell-based; settings: 1.5 μM, 24 hours
Protocol: as §3
(§4) The neurons were examined by FDA/PI double staining.

CGNs [8] = test: Hoechst 33342 staining of CGNs after low potassium; type: cell-based; settings: 1.5 μM, 24 hours
Protocol: as §3, §4

intracellular NO [9] = test: Intracellular NO in CGNs after low potassium; type: cell-based; settings: 1.5 μM, 4 hour after low potassium challenge
Protocol: as §3

intracellular NO [10] = test: Intracellular NO in SH-SY5Y cells after MPP+; type: cell-based, human; settings: 0.3 μM 2 hours, then 1 mM MPP+ 24 hours
Protocol: Cell viability was measured by the MTT assay at 24 hours after MPP^+ challenge. […] Intracellular NO level was measured using DAF-FM diacetate as a probe at 24 hour after MPP^+ challenge. Data, expressed as percentage of control, were the mean±SEM of three separate experiments; *p<0.05 and **p<0.01 versus MPP^+ group (ANOVA and Dunnett's test).
DAF-FM diacetate was also used to evaluate the intracellular NO level in this model.

iNOS [11] = biological target: T1, iNOS; test: In vitro NOS activity assay of Example 3, iNOS; type: biochemical; settings: 100 μM; data not shown
eNOS = eNOS (Homo sapiens, UniProt P29474); test: In vitro NOS activity assay of Example 3, eNOS; type: biochemical; settings: 100 μM; data not shown
[12] = tested on: nNOS knockdown SH-SY5Y cells; test: MPP+ in ShRNA-mediated nNOS knockdown SH-SY5Y cells; type: cell-based, human; settings: 0.3 μM 2 hours, then 1 mM MPP+ 24 hours
Protocol: (A) SH-SY5Y cells were transfected with pG418-GFP plasmid (vector), pG418-GFP plasmid encoding nNOS ShRNA (ShnNOS) and pG418-GFP plasmid encoding negative control ShRNA (ShNC). The level of nNOS and β-actin in the cell lysates were analyzed by Western blotting assay by using specific antibodies. […] Cell viability was measured at 24 hours after MPP^+ challenge by MTT assays. Data were the mean±SEM of three separate experiments; **p<0.01 versus control; ^##p<0.01 versus MPP^+ group; ^&p<0.05 versus MPP^+ vector group (Turkey's test).

SH-SY5Y cells [13] = settings: sustained (3 days) treatment, >1 μM; cited from earlier work
[14] = daily oral administration; cited from earlier work
[15] = cited from earlier work

VEGF
MPP+-induced neurotoxicity in CGNs (earlier study) (CGNs [1]): protected neurons against MPP^+-induced neurotoxicity

O=[N+]([O-])c1cccc2cn[nH]c12 [7-nitroindazole]
MPP+-induced cell death (cell viability, MTT and LDH assays) (CGNs [2]; pre-treatment 2 hours, then 35 μM MPP+ for 24 hours): inhibited neuronal death; also recorded: protected against neuronal apoptosis | MPP+-induced neuronal death in SH-SY5Y cells (MTT) (SH-SY5Y cells [3]): at 5-10 μM prevented MPP^+-induced neuronal death | MPP+-induced elevation of intracellular NO level (intracellular NO [4]): inhibited neuronal death and elevated level of intracellular NO induced by MPP^+ | IC50 (nNOS): 0.7 µM | IC50 (iNOS [5]): 20 µM

CCN(CC)CCNC(=O)c1c(C)[nH]c(/C=C2\C(=O)Nc3ccc(F)cc32)c1C [Sunitinib, N-(2-diethylaminoethyl)-5-[(Z)-(5-fluoro-2-oxo-1H-indol-3-ylidene)methyl]-2,4-dimethyl-1H-pyrrole-3-carboxamide]
cell proliferative or cytotoxic effects of the drug alone (CGNs [2]): did not show cell proliferative or cytotoxic effects | cell proliferative or cytotoxic effects of the drug alone, SH-SY5Y cells (SH-SY5Y cells [3]): did not show cell proliferative or cytotoxic effects | toxicity to SH-SY5Y cells at higher concentration (SH-SY5Y cells [3]; higher concentration (sunitinib 1 μM), data not shown): at higher concentration (1 μM) showed toxicity to SH-SY5Y cells | MPP+-induced neuronal death in SH-SY5Y cells (MTT) (SH-SY5Y cells [3]): prevented MPP^+-induced neuronal death at 0.1-0.3 μM | IC50 (rat cerebellum nNOS): 9.6 µM | low potassium-induced cell death (MTT) (CGNs [6]): unexpectedly prevented low potassium-induced cell death in CGNs in a concentration-dependent manner | loss of neurons and morphological alteration induced by low potassium (FDA/PI) (CGNs [7]): significantly blocked the loss of neurons and reversed the morphological alteration | neuronal apoptosis induced by low potassium (Hoechst 33342) (CGNs [8]): significantly reversed neuronal apoptosis induced by low potassium | low potassium-stimulated NO production (intracellular NO [9]): antagonized the stimulatory effect of low potassium on the NO production | MPP+-triggered elevation of intracellular NO level in SH-SY5Y cells (intracellular NO [10]): attenuated MPP^+-triggered elevation of intracellular NO level | inhibitory activity against iNOS (iNOS [11]): showed no inhibitory activity against iNOS or eNOS | inhibitory activity against eNOS (eNOS): showed no inhibitory activity against iNOS or eNOS | MPP+-induced cell death in nNOS knockdown SH-SY5Y cells (MTT) [12]: did not significantly inhibit MPP^+-induced cell death | proliferation of SH-SY5Y cells (previous studies) (SH-SY5Y cells [13]): could reduce the proliferation of SH-SY5Y cells | human plasma steady-state level [14]: 50 to 100 ng/mL | sunitinib still accumulated in the brain ([15]; 60 min following administration): 25% | sunitinib retained in the brain ([15]; 6 hour after oral administration): 60 ng/mL
